Reference: patent US20240239790A1, “7-Morpholino-1,6-Naphthyridin-5-yl Derivatives and Pharmaceutical Compositions Thereof Useful as DNA-PK Inhibitor” (adMare Therapeutics Society, priority 2021, published 2024)
Where two headings read alike, the source gives them in different places.

Experiments:
FaDu cell line = test: Prodrug Activation in Hypoxic Stirred Tumour Cell Suspensions; details: 10 μM, 4 hours
Experimental: Prodrug compounds were assayed to determine their stability and rate of activation in stirred cell suspensions under 0.2 vs 5% oxygen. Compounds were diluted 1:1000 from DMSO stocks to 10 μM final concentration in tumour cell suspensions (1% by cell volume) in MEM media containing 10% FBS, 10 mM glucose & 3.7 g/L sodium bicarbonate. Cell lines assayed included A253, A549, Detroit562, FaDu, HCT116, HEP G2, HT29, SCC25, SCC9, SiHa & TC32. Compounds and cells were then incubated for 4 hours under constant mixing at 37° C. under 5% CO2 and either 0.2 or 5% O2. Following the incubation period cellular activation of the compounds was assayed via MeOH extraction and HPLC quantification.

[1] = system: pH2AX induction in HCT116 ATM-/- multicellular tumour spheroids; test: Prodrug Radiation Sensitization in Multicellular Tumour Spheroids, inhibition of pH2AX induction following radiation; assay type: cell-based; details: Homo sapiens, HCT-116, 20 Gy
Outline: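 Endpoint: pH2AX (ser 139) or pDNA-PK (ser 2056) in cryosections fixed 1 or 2 h after 20 Gy, comparing oxygenated outer with hypoxic inner layers. Spheroids of ~0.5 mm (HCT116, FaDu; ATM-deficient cells used) held at 20% or 5% O2, 37 °C, stirred. Prodrug range 3.5 nM–10 μM.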

[2] = target: T1, DNA-PK phosphorylation at Serine 2056 (Homo sapiens, UniProt P78527); test: Cellular Assay for Inhibition of DNA-PK Phosphorylation at Serine 2056 in FaDu cells (sandwich ELISA, neocarzinostatin); assay type: cell-based; details: pSer2056 DNA-PK, Table 3
T1 construct: FaDu cells were purchased from ATCC; host or cells: FaDu
Outline: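 pSer2056 and total DNA-PK were measured by sandwich ELISA in BCA-normalised FaDu lysates. Cells had 1 h compound exposure (0.3% DMSO), then 2 h with 1 μg/mL final neocarzinostatin. IC50 was fitted (variable slope) to % inhibition scaled against NCS-stimulated and DMSO-only controls.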

[3] = 5% O2, inner layers, read-out: Prodrug 5% O2 Inner layers EC50
[4] = 5% O2, outer layers, read-out: Prodrug 5% O2 Outer layers EC50
[5] = 20% O2, outer layers, read-out: Prodrug 20% O2 Outer layers EC50

SMILES	Fraction of prodrug converted to active form, Hypoxic 0.2% O2 (FaDu cell line)	Fraction of prodrug converted to active form, Oxic 5% O2 (FaDu cell line)	IC50 [2] [µM]	EC50 [1, 3] [µM]	EC50 [1, 4] [µM]	EC50 [1, 5] [µM]
CC(Oc1cnc2cc(N3CCOCC3)nc(O[C@H]3CC[C@@H](Nc4ccccn4)CC3)c2c1)c1cnc([N+](=O)[O-])n1C (stereo partly drawn) [LFA2084, N-[4-[[3-[1-(3-methyl-2-nitro-imidazol-4-yl)ethoxy]-7-morpholino-1,6-naphthyridin-5-yl]oxy]cyclohexyl]pyridin-2-amine]	A (A is 0.15 to 1)	C (C is 0.02 to 0.05)	10 to 30	0.01 to 0.5	1 to 10	10 to 100
CC(Oc1cnc2cc(N3CCOCC3)nc(O[C@H]3CC[C@@H](Nc4ncc(CN(C)C)cn4)CC3)c2c1)c1cnc([N+](=O)[O-])n1C (stereo partly drawn) [LFA2085, 5-[(dimethylamino)methyl]-N-[4-[[3-[1-(3-methyl-2-nitro-imidazol-4-yl)ethoxy]-7-morpholino-1,6-naphthyridin-5-yl]oxy]cyclohexyl]pyrimidin-2-amine]	B (B is 0.05 to 0.15)	D (D is 0 to 0.02)	1 to 10	1 to 10	1 to 10	1 to 10
CC(Oc1cnc2cc(N3CCOCC3)nc(O[C@H]3CC[C@@H](Nc4ncc(OCCN(C)C)cn4)CC3)c2c1)c1cnc([N+](=O)[O-])n1C (stereo partly drawn) [LFA2087, 5-[2-(dimethylamino)ethoxy]-N-[4-[[3-[1-(3-methyl-2-nitro-imidazol-4-yl)ethoxy]-7-morpholino-1,6-naphthyridin-5-yl]oxy]cyclohexyl]pyrimidin-2-amine]	A (A is 0.15 to 1)	D (D is 0 to 0.02)	1 to 10	1 to 10	1 to 10	1 to 10
CN(C)CCOc1cnc(N[C@H]2CC[C@@H](Oc3nc(N4CCOCC4)cc4ncc(OCc5cnc([N+](=O)[O-])n5C)cc34)CC2)nc1 [LFA2088, 5-[2-(dimethylamino)ethoxy]-N-[4-[[3-[(3-methyl-2-nitro-imidazol-4-yl)methoxy]-7-morpholino-1,6-naphthyridin-5-yl]oxy]cyclohexyl]pyrimidin-2-amine]	B (B is 0.05 to 0.15)	D (D is 0 to 0.02)	1 to 10	1 to 10	1 to 10	1 to 10
CC(Oc1cnc2cc(N3CCOCC3)nc(OC3CCC(Nc4ncc(OCCN5CCN(C)CC5)cn4)CC3)c2c1)c1cnn(C)c1[N+](=O)[O-] (stereo not drawn) [LFA2089, N-[4-[[3-[1-(1-methyl-5-nitro-pyrazol-4-yl)ethoxy]-7-morpholino-1,6-naphthyridin-5-yl]oxy]cyclohexyl]-5-[2-(4-methylpiperazin-1-yl)ethoxy]pyrimidin-2-amine]	B (B is 0.05 to 0.15)	D (D is 0 to 0.02)	1 to 10	1 to 10	1 to 10	1 to 10
CC(NS(=O)(=O)c1cnc2cc(N3CCOCC3)nc(O[C@H]3CC[C@@H](Nc4ncc(OCCN5CCN(C)CC5)cn4)CC3)c2c1)c1cnc([N+](=O)[O-])n1C (stereo partly drawn) [LFA2090, N-[1-(3-methyl-2-nitro-imidazol-4-yl)ethyl]-5-[4-[[5-[2-(4-methylpiperazin-1-yl)ethoxy]pyrimidin-2-yl]amino]cyclohexoxy]-7-morpholino-1,6-naphthyridine-3-sulfonamide]	D (D is 0 to 0.02)	D (D is 0 to 0.02)	10 to 30	10 to 100	10 to 100	10 to 100
Cn1c(CNS(=O)(=O)c2cnc3cc(N4CCOCC4)nc(O[C@H]4CC[C@@H](Nc5ncc(C(F)(F)F)cn5)CC4)c3c2)cnc1[N+](=O)[O-] [LFA2091, N-[(3-methyl-2-nitro-imidazol-4-yl)methyl]-7-morpholino-5-[4-[[5-(trifluoromethyl)pyrimidin-2-yl]amino]cyclohexoxy]-1,6-naphthyridine-3-sulfonamide]	D (D is 0 to 0.02)	D (D is 0 to 0.02)	10 to 30	10 to 100	10 to 100	10 to 100
CC(NS(=O)(=O)c1cnc2cc(N3CCOCC3)nc(O[C@H]3CC[C@@H](Nc4ncc(C(F)(F)F)cn4)CC3)c2c1)c1cnc([N+](=O)[O-])n1C (stereo partly drawn) [LFA2092, N-[1-(3-methyl-2-nitro-imidazol-4-yl)ethyl]-7-morpholino-5-[4-[[5-(trifluoromethyl)pyrimidin-2-yl]amino]cyclohexoxy]-1,6-naphthyridine-3-sulfonamide]	D (D is 0 to 0.02)	D (D is 0 to 0.02)	10 to 30	10 to 100	10 to 100	1 to 10
Cn1c(COc2cnc3cc(N4CCOCC4)nc(O[C@H]4CC[C@@H](Nc5cncc(C(F)(F)F)n5)CC4)c3c2)cnc1[N+](=O)[O-] [LFA2097, N-[4-[[3-[(3-methyl-2-nitro-imidazol-4-yl)methoxy]-7-morpholino-1,6-naphthyridin-5-yl]oxy]cyclohexyl]-6-(trifluoromethyl)pyrazin-2-amine]	C (C is 0.02 to 0.05)	D (D is 0 to 0.02)	10 to 30	10 to 100	10 to 100	10 to 100

More lines, main results first:

Fraction of prodrug converted to active form, Hypoxic 0.2% O2 (FaDu cell line)	Fraction of prodrug converted to active form, Oxic 5% O2 (FaDu cell line)	IC50 [2] [µM]	SMILES	EC50 [1, 3] [µM]	EC50 [1, 4] [µM]	EC50 [1, 5] [µM]
B (B is 0.05 to 0.15)	B (B is 0.05 to 0.15)	10 to 30	Cc1cc(C)nc(N[C@H]2CC[C@@H](Oc3nc(N4CCOCC4)cc4ncc(OCc5cnc([N+](=O)[O-])n5C)cc34)CC2)n1 [LFA2081, 4,6-dimethyl-N-[4-[[3-[(3-methyl-2-nitro-imidazol-4-yl)methoxy]-7-morpholino-1,6-naphthyridin-5-yl]oxy]cyclohexyl]pyrimidin-2-amine]	0.5 to 1	1 to 10	1 to 10
A (A is 0.15 to 1)	C (C is 0.02 to 0.05)	10 to 30	Cc1cc(C)nc(N[C@H]2CC[C@@H](Oc3nc(N4CCOCC4)cc4ncc(OC(C)c5cnc([N+](=O)[O-])n5C)cc34)CC2)n1 (stereo partly drawn) [LFA2082, 4,6-dimethyl-N-[4-[[3-[1-(3-methyl-2-nitro-imidazol-4-yl)ethoxy]-7-morpholino-1,6-naphthyridin-5-yl]oxy]cyclohexyl]pyrimidin-2-amine]	0.01 to 0.5	1 to 10	1 to 10
A (A is 0.15 to 1)	C (C is 0.02 to 0.05)	10 to 30	Cn1c(COc2cnc3cc(N4CCOCC4)nc(O[C@H]4CC[C@@H](Nc5ccccn5)CC4)c3c2)cnc1[N+](=O)[O-] [LFA2083, N-[4-[[3-[(3-methyl-2-nitro-imidazol-4-yl)methoxy]-7-morpholino-1,6-naphthyridin-5-yl]oxy]cyclohexyl]pyridin-2-amine]	0.01 to 0.5	1 to 10	1 to 10
D (D is 0 to 0.02)	D (D is 0 to 0.02)	10 to 30	CN(C)Cc1cnc(N[C@H]2CC[C@@H](Oc3nc(N4CCOCC4)cc4ncc(OCc5cnc([N+](=O)[O-])n5C)cc34)CC2)nc1 [LFA2086, 5-[(dimethylamino)methyl]-N-[4-[[3-[(3-methyl-2-nitro-imidazol-4-yl)methoxy]-7-morpholino-1,6-naphthyridin-5-yl]oxy]cyclohexyl]pyrimidin-2-amine]	1 to 10	1 to 10	1 to 10
B (B is 0.05 to 0.15)	B (B is 0.05 to 0.15)	10 to 30	Cc1cc(C#N)nc(N[C@H]2CC[C@@H](Oc3nc(N4CCOCC4)cc4ncc(OCc5cnc([N+](=O)[O-])n5C)cc34)CC2)n1 [LFA2093, 6-methyl-2-[[4-[[3-[(3-methyl-2-nitro-imidazol-4-yl)methoxy]-7-morpholino-1,6-naphthyridin-5-yl]oxy]cyclohexyl]amino]pyrimidine-4-carbonitrile]	1 to 10	1 to 10	1 to 10
B (B is 0.05 to 0.15)	B (B is 0.05 to 0.15)	10 to 30	Cc1cc(C#N)nc(N[C@H]2CC[C@@H](Oc3nc(N4CCOCC4)cc4ncc(OC(C)c5cnc([N+](=O)[O-])n5C)cc34)CC2)n1 (stereo partly drawn) [LFA2094, 6-methyl-2-[[4-[[3-[1-(3-methyl-2-nitro-imidazol-4-yl)ethoxy]-7-morpholino-1,6-naphthyridin-5-yl]oxy]cyclohexyl]amino]pyrimidine-4-carbonitrile]	0.5 to 1	1 to 10	10 to 100
